Assay results as given in patent US8211479B2, “Combinations of vasoactive substances with estrogens and their use in the treatment of female sexual dysfunctions” (Indena S.p.A., priority 2007, dated 2012).

Legend:
PDE5A1 = PDE5A1 (Homo sapiens, UniProt O76074)
[1] = tested on: arterioles and precapillary arteries; settings: topically administered; increasing blood flow and tissue perfusion; cited from earlier work

inhibition of phosphodiesterase cGMP (in words) (PDE5A1) | Compound | vasokinetic action on arterioles and precapillary arteries (in words) [1]
powerful inhibitors | COc1ccc(-c2oc3c(CC=C(C)C)c(OCCO)cc(O)c3c(=O)c2OCCO)cc1 [Compound 1, 3,7-O-di-(2-hydroxyethyl)icaritin] | –
powerful inhibitors | COc1ccc(-c2oc3c(CC=C(C)C)c(OCCO)cc(O)c3c(=O)c2O[C@@H]2O[C@@H](C)[C@H](O)[C@@H](O)[C@H]2O)cc1 [Compound 2, 7-O-hydroxyethyl-icariside II] | –
– | Visnadin | marked vasokinetic action
